Reference: patent publication US20240182481A1 (Tango Therapeutics, Inc., priority 2021, published 2024)

Legend:
USP1-UAF1 = USP1-UAF1 (Homo sapiens, UniProt O94782); assay: Ubiquitin Rhodamine assay for USP1-UAF1 activity; assay type: biochemical
Description: Certain compounds of the disclosure were assessed for USP1-UAF1 activity in a Ubiquitin Rhodamine assay as described in Example 135.

[1] = tested on: MDA-MB-436 (BRCA1 mutant) cell line; assay: Viability assay in BRCA1 mutant cell line MDA-MB-436; assay type: cell-based; details: Homo sapiens, MDA-MB-436, viability, BRCA1 mutant MDA-MB-436; read-out: MDA-MB-436 rel IC50
From the text: (§1) Table 1 also indicates IC50 values in a viability assay for a non-isogenic pair of BRCA1 mutant (column 5—MDA-MB-436) and BRCA1 WT (column 6—HCC1954) cell lines. These values indicate the effect of treatment with compound on cell survival.

[2] = tested on: HCC1954 (BRCA1 WT) cell line; assay: Viability assay in BRCA1 WT cell line HCC1954; assay type: cell-based; details: Homo sapiens, read-out: HCC 1954 IC50 rel IC50
From the text: as §1

monoubiquitinated PCNA = assay: AlphaLISA assay measuring monoubiquitinated PCNA in MDA-MB-436; assay type: cell-based; details: Homo sapiens, read-out: Alpha LISA IC50
From the text: Table 1 also indicates IC50 values for exemplary compounds in an AlphaLISA assay measuring monoubiquitinated PCNA in a BRCA1 mutant cell line (MDA-MB-436; column 7).

Sequence of USP1-UAF1 (O94782 whole entry): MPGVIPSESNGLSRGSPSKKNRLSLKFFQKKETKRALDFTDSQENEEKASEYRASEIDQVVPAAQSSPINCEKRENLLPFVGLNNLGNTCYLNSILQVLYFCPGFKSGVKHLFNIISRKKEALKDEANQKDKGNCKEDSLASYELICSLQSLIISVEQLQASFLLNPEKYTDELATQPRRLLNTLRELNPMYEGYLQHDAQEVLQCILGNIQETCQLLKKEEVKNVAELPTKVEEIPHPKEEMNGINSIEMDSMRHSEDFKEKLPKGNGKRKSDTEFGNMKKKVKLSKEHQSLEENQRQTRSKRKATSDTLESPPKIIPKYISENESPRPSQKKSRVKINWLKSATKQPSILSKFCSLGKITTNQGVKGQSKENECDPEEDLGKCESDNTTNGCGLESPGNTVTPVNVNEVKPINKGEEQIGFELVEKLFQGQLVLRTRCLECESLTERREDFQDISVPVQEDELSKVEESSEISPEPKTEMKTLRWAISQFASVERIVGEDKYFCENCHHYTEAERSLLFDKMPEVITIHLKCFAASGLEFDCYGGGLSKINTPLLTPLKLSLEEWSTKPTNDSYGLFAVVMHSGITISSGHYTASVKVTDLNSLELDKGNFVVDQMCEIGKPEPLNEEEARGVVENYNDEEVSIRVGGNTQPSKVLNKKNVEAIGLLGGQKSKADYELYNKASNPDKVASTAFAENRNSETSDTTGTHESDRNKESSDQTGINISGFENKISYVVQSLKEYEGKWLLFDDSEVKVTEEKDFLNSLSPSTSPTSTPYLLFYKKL
Sequence of USP1-UAF1 (Q8TAF3 whole entry partner): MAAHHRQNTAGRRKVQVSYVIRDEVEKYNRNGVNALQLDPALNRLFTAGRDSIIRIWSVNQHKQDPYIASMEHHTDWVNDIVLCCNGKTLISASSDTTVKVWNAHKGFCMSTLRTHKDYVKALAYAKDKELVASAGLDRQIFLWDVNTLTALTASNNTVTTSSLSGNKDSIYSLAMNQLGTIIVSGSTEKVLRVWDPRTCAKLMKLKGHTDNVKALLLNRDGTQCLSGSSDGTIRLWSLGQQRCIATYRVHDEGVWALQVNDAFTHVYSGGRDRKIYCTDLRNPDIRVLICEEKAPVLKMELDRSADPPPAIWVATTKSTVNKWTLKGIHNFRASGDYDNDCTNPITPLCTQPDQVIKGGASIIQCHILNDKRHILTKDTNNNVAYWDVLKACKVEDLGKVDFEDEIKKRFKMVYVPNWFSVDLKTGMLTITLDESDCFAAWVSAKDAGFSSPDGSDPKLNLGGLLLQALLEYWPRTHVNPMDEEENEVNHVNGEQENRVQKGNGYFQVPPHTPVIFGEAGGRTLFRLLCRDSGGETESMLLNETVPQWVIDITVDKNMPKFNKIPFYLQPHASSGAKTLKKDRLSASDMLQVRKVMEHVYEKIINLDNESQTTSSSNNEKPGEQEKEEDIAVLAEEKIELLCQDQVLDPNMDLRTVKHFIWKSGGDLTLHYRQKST

Structure (SMILES)	IC50 (USP1-UAF1) [nM]	IC50 [1] [nM]	IC50 [2] [nM]	IC50 (monoubiquitinated PCNA) [nM]
COc1ncnc(C2CC2(F)F)c1-c1ncc2[nH]cc(Cc3ccc(-c4nc(C(F)(F)F)cn4C)cc3)c2n1 (stereo not shown) [Compound 147, 2-[4-(2,2-difluorocyclopropyl)-6-methoxy-pyrimidin-5-yl]-7-[[4-[1-methyl-4-(trifluoromethyl)imidazol-2-yl]phenyl]methyl]-5H-pyrrolo[3,2-d]pyrimidine]	< 30	< 100	≥ 10000	< 100
CC(C)n1cc(C(F)(F)F)nc1-c1ccc(Cc2c[nH]c3cnc(-c4cccnc4OC(F)F)nc23)cc1 [Compound 28, 2-[2-(difluoromethoxy)-3-pyridyl]-7-[[4-[1-isopropyl-4-(trifluoromethyl)imidazol-2-yl]phenyl]methyl]-5H-pyrrolo[3,2-d]pyrimidine]	30 to 100	< 100	≥ 10000	100 to 250
[2H]C([2H])([2H])Oc1ncnc(C2CC2)c1-c1ncc2[nH]cc(Cc3ccc(-c4nc(C(F)(F)F)cn4C)cc3)c2n1 [Compound 204, 2-[4-cyclopropyl-6-(trideuteriomethoxy)pyrimidin-5-yl]-7-[[4-[1-methyl-4-(trifluoromethyl)imidazol-2-yl]phenyl]methyl]-5H-pyrrolo[3,2-d]pyrimidine]	< 30	< 100	≥ 10000	< 100
Cn1cc(C(F)(F)F)nc1-c1ccc(Cc2c[nH]c3cnc(-c4cccnc4OC4CC4)nc23)cc1 [Compound 41, 2-cyclopropoxy-3-[7-([4-[1-methyl-4-(trifluoromethyl)imidazol-2-yl]phenyl]methyl)-5H-pyrrolo[3,2-d]pyrimidin-2-yl]pyridine]	30 to 100	100 to 250	≥ 10000	< 100
CC(C)n1cc(C(F)(F)F)nc1-c1ccc(Cc2c[nH]c3cnc(-c4c(OC(F)F)ncnc4C4CC4)nc23)cc1 [Compound 132]	< 30	< 100	≥ 10000	< 100
COc1ncnc(C2CC2)c1-c1ncc2nn(CC(F)(F)F)c(Cc3ccc(-c4nc(C(F)(F)F)cn4C)cc3)c2n1 [Compound 131, 5-(4-cyclopropyl-6-methoxy-pyrimidin-5-yl)-3-[[4-[1-methyl-4-(trifluoromethyl)imidazol-2-yl]phenyl]methyl]-2-(2,2,2-trifluoroethyl)pyrazolo[4,3-d]pyrimidine]	100 to 10000	< 100	≥ 10000	< 100
CC(C)c1ccccc1-c1ncc2[nH]cc([C@H](C)c3ccc(-c4nc(C(F)(F)F)cn4C)cc3)c2n1 (single isomer, unassigned) [Compound 64]	< 30	< 100	250 to 10000	< 100
Cn1cc(C(F)(F)F)nc1-c1ccc(Cc2c[nH]c3cnc(-c4cccnc4C4CC4)nc23)cc1 [Compound 60, 2-(2-cyclopropyl-3-pyridyl)-7-[[4-[1-methyl-4-(trifluoromethyl)imidazol-2-yl]phenyl]methyl]-5H-pyrrolo[3,2-d]pyrimidine]	< 30	< 100	≥ 10000	< 100
COc1ncnc(C2CC2)c1-c1ncc2[nH]cc(Cc3ccc(-c4nc(C(F)(F)F)cn4C)cc3C)c2n1 [Compound 203, 2-(4-cyclopropyl-6-methoxy-pyrimidin-5-yl)-7-[[2-methyl-4-[1-methyl-4-(trifluoromethyl)imidazol-2-yl]phenyl]methyl]-5H-pyrrolo[3,2-d]pyrimidine]	< 30	< 100	≥ 10000	< 100
CN1CC(n2cc(C(F)(F)F)nc2-c2ccc(Cc3c[nH]c4cnc(-c5cccnc5OC(F)F)nc34)cc2)C1 [Compound 20, 2-[2-(difluoromethoxy)-3-pyridyl]-7-[[4-[1-(1-methylazetidin-3-yl)-4-(trifluoromethyl)imidazol-2-yl]phenyl]methyl]-5H-pyrrolo[3,2-d]pyrimidine]	100 to 10000	100 to 250	≥ 10000	< 100
